# Measurements from patent US20100092499A1, “Alpha Thymosin Peptides as Cancer Vaccine Adjuvants” (SCICLONE PHARMACEUTICALS, INC., priority 2004, published 2010).
# Key:
# [1] = in vivo; cited from earlier work
# patient tumor cells = assay: Lymphocyte Proliferation Assay (LPI); format: cell-based, human; settings: five patients with LPI lower than 20 U after second DC immunization; thymalfasin 1.6 mg twice a week for 6 months plus 4 additional DC vaccine courses
# Experimental: (§1) After the second vaccination course, the cellular immunization were measured, if this is >=20 ULPI (Linfocitic Proliferative Index) continued with the vaccination.
# The patient immune response was measured using a well known in-vitro test named Lymphocyte Proliferation Assay. Briefly, mononuclear cells from the patient were purified and mixed with a suspension of the patient tumor cells at ratio 10:1 (3000 Lympho-monocytes vs 300 tumor cells). The mix cell suspension was seeded in a multi well plate and incubated at 37° C. After 96 hr the cells were harvested and counted by an automatic haemocytometer.
# thymocytes = settings: in vitro, dose-dependent; most pronounced on CD4CD8 double positive immature T cells; cited from earlier work
# human CD34 stem cells = settings: added to human CD34 stem cells in culture; cited from earlier work
# advanced breast cancer = assay: Clinical study of dendritic cell vaccine with or without thymalfasin in advanced breast cancer patients; format: in vivo, human; settings: for Patient Survival: 12 months; for Patient Survival / Patients with Tumor Reduction >50%: Group 3 non responders (LPI <20 U), 6 dendritic cell immunizations plus thymalfasin 1.6 mg twice a week, n=5; for Patients with Tumor Reduction >50%: Month 6
# Experimental: Finally, the patients were immunized with the activated B cells hybrid itself, or a B cell hybrid cocultured with the patients' Dendritic Cells. This immunization was applied into a healthy lymph node once every three weeks. At the same time, the patients received 1.6 mg thymalfasin subcutaneously in the evenings (within between 7:00 pm and 9:00 pm) every 3 days during the time of immunization and for the following six months after the vaccination protocol was completed. This vaccination plan may, for example, involve from 4 to 10 doses, although these numbers are not exclusive.
# Eighteen patients with advanced breast cancer resistant to chemo, radio and hormonotherapy were treated.
# All the patients were female with Breast Cancer class 4 (with metastases).
# The age rank was between 39 to 71 years.
# The patients were treated with dendritic cell vaccine (according protocol: Annals of Oncology 2004-Vol 15. Supp. 3 Abs: iii40-Dendritic Cell Vaccine for Metastases Breast Cancer).
# as §1
# If the response was <20 ULPI, the patients were divided in 2 groups (randomized) of 5 and 7 patients group. The 5 patients group received Dendritic Cells
# Vaccine plus thymalfasin (1.6 mg/tw during 6 months).
# The clinical response and the survival data originated on total 18 metastatic breast patients treated were collected and, in order to perform a case serial statistic analysis we divided the total population in three different groups.
# In Group 3 (n=5), patients received 6 dendritic cell immunizations with an LPI <20 U (non immune response) after the second vaccine and they received thymalfasin (1.6 mg/twice a week).
# [2] = system: IFNγ, IL-2, IL-3, IL-2 receptor; settings: following activation by mitogens or antigens; cited from earlier work
substance,measurement,setting,value
thymosin alpha 1 [thymalfasin],safety / side effects,[1],safe drug and its potential side effects are significantly low
same,Lymphocyte Proliferation Index (LPI),patient tumor cells,able to improve the LPI
same,dexamethasone-induced apoptosis in thymocytes,thymocytes,antagonizes
same,"thymopoiesis (number of total CD3 T cells, synthesis of IL-7)",human CD34 stem cells,increased thymopoiesis
same,Patient Survival,advanced breast cancer,80%
same,Patient Survival,advanced breast cancer; listed as THYMALFASIN,80%
same,Patients with Tumor Reduction >50%,advanced breast cancer,80%
same,Patients with Tumor Reduction >50%,advanced breast cancer; listed as THYMALFASIN,80%
same,Patient survival compared with immune responders and non immune responders who did not receive thymalfasin,"advanced breast cancer; advanced breast cancer patients, dendritic cell immunization",higher
same,effective tumor response,"advanced breast cancer; five patients with LPI lower than 20 U, thymalfasin 1.6 mg twice a week for 6 months plus 4 additional DC vaccine courses",majority of the treated patients showed an effective tumor response
same,"production of IFNγ, IL-2, IL-3 and expression of the IL-2 receptor",[2],can increase production
